This note sets out measurements from patent US7230011B2, “Benzenesulfonic acid indol-5-yl esters as antagonists of the 5ht6 receptor” (Eli Lilly and Company, priority 2002, dated 2007).

Counter-ions that a name gives are not always drawn.

Consider `CN1CCC(c2cn(CCCc3ccccc3)c3ccc(OS(=O)(=O)c4ccccc4)cc23)CC1.O=C(O)C(=O)O`, for which the melting point is 188 to 191 °C. For `CCCS(=O)(=O)n1cc(C2CCN(C)CC2)c2cc(OS(=O)(=O)c3ccccc3)ccc21.O=C(O)C(=O)O`, the melting point lay in the range of 139 to 142 °C. In the case of `CC(C)S(=O)(=O)n1cc(C2CCN(C)CC2)c2cc(OS(=O)(=O)c3ccccc3)ccc21.O=C(O)C(=O)O`, the melting point fell in the range of 134 to 138 °C.

`CCS(=O)(=O)n1cc(C2CCN(C)CC2)c2cc(OS(=O)(=O)c3ccccc3)ccc21.O=C(O)C(=O)O`: the melting point lay within 121 to 126 °C.

For the compound `CN1CCC(c2cn(S(C)(=O)=O)c3ccc(OS(=O)(=O)c4ccccc4)cc23)CC1.O=C(O)C(=O)O`, the melting point is 95 to 99 °C. Regarding `CN1CCC(c2cn(S(=O)(=O)Cc3ccccc3)c3ccc(OS(=O)(=O)c4ccccc4)cc23)CC1.O=C(O)C(=O)O`, the melting point is 120 to 124 °C. `CN1CCC(c2cn(S(=O)(=O)c3cccc4ccccc34)c3ccc(OS(=O)(=O)c4ccccc4)cc23)CC1.O=C(O)C(=O)O` came in with a melting point of 121 to 125 °C.

Consider `CCCCn1cc(C2CCN(C)CC2)c2cc(OS(=O)(=O)c3ccccc3)ccc21.O=C(O)C(=O)O`, for which the melting point was 193 to 198 °C. As for `CN1CCC(c2cn(Cc3ccc(F)cc3)c3ccc(OS(=O)(=O)c4ccccc4)cc23)CC1.O=C(O)C(=O)O`, the melting point is 181 to 184 °C. In turn, `CN1CCC(c2cn(Cc3ccc(F)cc3F)c3ccc(OS(=O)(=O)c4ccccc4)cc23)CC1.O=C(O)C(=O)O` yielded a melting point of 141 to 144 °C. The compound `CN1CCC(c2cn(Cc3ccccc3)c3ccc(OS(=O)(=O)c4ccccc4)cc23)CC1.Cl` gave a melting point of 227 to 230 °C.

Turning to `CN1CCC(c2cn(Cc3ccccc3F)c3ccc(OS(=O)(=O)c4ccccc4)cc23)CC1.Cl`, the melting point lay within 222 to 224 °C. The compound `CN1CCC(c2cn(Cc3cccc(F)c3)c3ccc(OS(=O)(=O)c4ccccc4)cc23)CC1.Cl` came in with a melting point of 103 to 105 °C. `CC(C)Cn1cc(C2CCN(C)CC2)c2cc(OS(=O)(=O)c3ccccc3)ccc21.Cl` showed a melting point of 188 to 191 °C.

For `CN1CCC(c2cn(CCCCc3ccccc3)c3ccc(OS(=O)(=O)c4ccccc4)cc23)CC1.Cl`, the melting point was 158 to 161 °C. With `CC(C)n1cc(C2CCN(C)CC2)c2cc(OS(=O)(=O)c3ccccc3)ccc21.O=C(O)C(=O)O`, the melting point lay in the range of 103 to 107 °C. Compound `CN1CCC(c2cn(C3CCCC3)c3ccc(OS(=O)(=O)c4ccccc4)cc23)CC1.O=C(O)C(=O)O` came in with a melting point of 202 to 205 °C. The result for `CCCCn1cc(C2CCN(C)CC2)c2cc(OS(=O)(=O)c3ccccc3)ccc21.Cl` reads 169 to 172 °C. To `CCCn1cc(C2CCN(C)CC2)c2cc(OS(=O)(=O)c3c(F)cccc3F)ccc21.O=C(O)C(=O)O` belongs 185 to 189 °C; to `CN1CCC(c2cn(Cc3ccc(F)cc3)c3ccc(OS(=O)(=O)c4ccccc4)cc23)CC1.Cl`, 169 to 172 °C; to `CN1CCC(c2c3n(c4ccc(OS(=O)(=O)c5c(F)cccc5F)cc24)CCC3)CC1.Cl`, 149 °C. Compound `CCn1cc(C2CCN(C)CC2)c2cc(OS(=O)(=O)c3ccccc3)ccc21.O=C(O)C(=O)O` registered a melting point of 127 to 130 °C. With `CN1CC=C(c2c[nH]c3ccc(OS(=O)(=O)c4c(F)cccc4F)cc23)CC1`, the melting point was 183 °C (dec.). To `CN1CC=C(c2c[nH]c3ccc(OS(=O)(=O)c4ccccc4)cc23)CC1` belongs 186 to 190 °C; to `CN1CCC(c2cn(CCc3ccccc3)c3ccc(OS(=O)(=O)c4c(F)cccc4F)cc23)CC1.Cl`, 209 to 212 °C.

As for `CN1CCC(c2cn(Cc3ccc(F)cc3)c3ccc(OS(=O)(=O)c4c(F)cccc4F)cc23)CC1.Cl`, the melting point is 114 to 118 °C.

In the case of `CCCn1cc(C2CCN(C)CC2)c2cc(OS(=O)(=O)c3ccccc3)ccc21.Cl`, the melting point was 194 to 197 °C. To `CN1CCC(c2cn(Cc3ccccc3)c3ccc(OS(=O)(=O)c4c(F)cccc4F)cc23)CC1.Cl` belongs 225 to 227 °C; to `CN1CCC(c2cn(C)c3ccc(OS(=O)(=O)c4c(F)cccc4F)cc23)CC1.O=C(O)C(=O)O`, 195 to 198 °C (dec.). With `CN1CCC(c2c[nH]c3ccc(OS(=O)(=O)c4ccc(NS(C)(=O)=O)cc4)cc23)CC1.Cl`, the melting point was 238 °C (dec.). The compound `CN1CCC(c2cn(C)c3ccc(OS(=O)(=O)c4ccccc4)cc23)CC1.O=C(O)C(=O)O` displayed a melting point of 135 to 142 °C. Consider `CN1CCC(c2c3n(c4ccc(OS(=O)(=O)c5ccccc5)cc24)CCC3)CC1.Cl`, for which the melting point fell in the range of 202 to 204 °C. With `CCn1cc(C2CCN(C)CC2)c2cc(OS(=O)(=O)c3c(F)cccc3F)ccc21.O=C(O)C(=O)O`, the melting point lay in the range of 161 to 165 °C. As for `CN1CCC(c2cn(Cc3ccccc3)c3ccc(OS(=O)(=O)c4c(F)cccc4F)cc23)CC1.O=C(O)C(=O)O`, the melting point was 205 to 208 °C.

In the case of `CN1CCC(c2cn(CCc3ccccc3)c3ccc(OS(=O)(=O)c4ccccc4)cc23)CC1.O=C(O)C(=O)O`, the melting point was in the range of 208 to 212 °C.

`CCCn1cc(C2=CCN(C)CC2)c2cc(OS(=O)(=O)c3ccccc3)ccc21` (as salt: hydrochloride) returned a melting point of 170 to 174 °C. The result for `Cc1[nH]c2ccc(OS(=O)(=O)c3c(F)cccc3F)cc2c1C1CCN(C)CC1` (as salt: hydrochloride) [Example 31, 2,6-Difluorobenzenesulfonic acid 2-methyl-3-(1-methylpiperidin-4-yl)-1H-indol-5-yl ester] reads 138 °C (dec.); that for `CN1CCC(c2c[nH]c3ccc(OS(=O)(=O)c4c(F)cccc4F)cc23)CC1` [47], 235 to 238 °C; that for `CN1CCC(c2c[nH]c3cc(F)c(OS(=O)(=O)c4c(F)cccc4F)cc23)CC1` [Example 32, 2,6-Difluorobenzenesulfonic acid 6-fluoro-3-(1-methylpiperidin-4-yl)-1H-indol-5-yl ester], 202 °C. For the compound `CN1CCC(c2c[nH]c3ccc(OS(=O)(=O)c4ccccc4)cc23)CC1` [Example 34, Benzenesulfonic acid 3-(1-methylpiperidin-4-yl)-1H-indol-5-yl ester], the melting point fell in the range of 192 to 194 °C. `CN1CCC(c2c[nH]c3ccc(OS(=O)(=O)c4ccc(F)cc4F)cc23)CC1` [Example 35, 2,4-Difluorobenzenesulfonic acid 3-(1-methylpiperidin-4-yl)-1H-indol-5-yl ester] returned a melting point of 163 to 164 °C. On to `CN1CCC(c2c[nH]c3ccc(OS(=O)(=O)c4ccc(I)cc4)cc23)CC1` [Example 36, 4-Iodobenzenesulfonic acid 3-(1-methylpiperidin-4-yl)-1H-indol-5-yl ester], for which the melting point was in the range of 174 to 176 °C. The result for `CN1CCC(c2c[nH]c3ccc(OS(=O)(=O)c4ccc(Cl)cc4)cc23)CC1` [Example 37, 4-Chlorobenzenesulfonic acid 3-(1-methylpiperidin-4-yl)-1H-indol-5-yl ester] reads 182 to 183.5 °C. Turning to `COc1ccc(S(=O)(=O)Oc2ccc3[nH]cc(C4CCN(C)CC4)c3c2)cc1` [Example 38, 4-Methoxybenzenesulfonic acid 3-(1-methylpiperidin-4-yl)-1H-indol-5-yl ester], the melting point was in the range of 186 to 187 °C. Take `Cc1ccc(S(=O)(=O)Oc2ccc3[nH]cc(C4CCN(C)CC4)c3c2)cc1` [Example 39, 4-Methylphenylsulfonic acid 3-(1-methylpiperidin-4-yl)-1H-indol-5-yl ester]: the melting point was 186 to 187 °C. The result for `CN1CCC(c2c[nH]c3ccc(OS(=O)(=O)c4ccccc4F)cc23)CC1` [Example 40, 2-Fluorobenzenesulfonic acid 3-(1-methylpiperidin-4-yl)-1H-indol-5-yl ester] reads 180 to 182 °C. In turn, `CN1CCC(c2c[nH]c3ccc(OS(=O)(=O)c4ccc(F)c(F)c4F)cc23)CC1` [Example 41, 2,3,4-Trifluorobenzenesulfonic acid 3-(1-methylpiperidin-4-yl)-1H-indol-5-yl ester] yielded a melting point of 160 to 162 °C. To `CN1CCC(c2c[nH]c3ccc(OS(=O)(=O)c4c(F)cccc4F)cc23)CC1` [Example 42, 2,6-Difluorobenzenesulfonic acid 3-(1-methylpiperidin-4-yl)-1H-indol-5-yl ester] belongs 214 to 215 °C; to `CN1CCC(c2c[nH]c3ccc(OS(=O)(=O)c4ccc([N+](=O)[O-])cc4)cc23)CC1` [Example 43, 4-Nitrobenzenesulfonic acid 3-(1-methylpiperidin-4-yl)-1H-indol-5-yl ester], 171 to 172 °C. With `CN1CCC(c2c[nH]c3ccc(OS(=O)(=O)c4ccccc4)cc23)CC1` [Example 45, Benzenesulfonic acid 3-(1-methylpiperidin-4-yl)-1H-indol-5-yl ester], the melting point lay within 189 to 194 °C. `CN1CCC(c2c[nH]c3ccc(OS(=O)(=O)c4ccc(F)cc4)cc23)CC1` [Example 51, 4-Fluorobenzenesulfonic acid 3-(1-methylpiperidin-4-yl)-1H-indol-5-yl ester] returned a melting point of 170 to 172 °C. Regarding `Cc1cc(OS(=O)(=O)c2c(F)cccc2F)cc2c(C3CCN(C)CC3)cn(C)c12` [Example 56, 2,6-Difluorobenzenesulfonic acid 1,7-dimethyl-3-(1-methylpiperidin-4-yl)-1H-indol-5-yl ester], the melting point came out at 139 °C. For `Cc1cc(OS(=O)(=O)c2c(F)cccc2F)cc2c(C3CCN(C)CC3)cn(Cc3ccccc3)c12` [Example 59, 2,6-Difluorobenzenesulfonic acid 1-benzyl-7-methyl-3-(1-methylpiperidin-4-yl)-1H-indol-5-yl ester], the melting point worked out at 158 °C. In turn, `Cc1cc(OS(=O)(=O)c2ccccc2)cc2c(C3CCN(C)CC3)c[nH]c12` [Example 62, Benzenesulfonic Acid 7-methyl-3-(1-methylpiperidin-4-yl)-1H-indol-5-yl Ester] returned a melting point of 118 °C.

In general, melting point refers to the temperature of the solid-liquid transition.
